Test results published in patent US11505523B2, “HDAC8 inhibitors for treating cancer” (City of Hope, priority 2013, dated 2022).
“Also recorded” adds a separate entry of the source.

Columns and labels:
[1] = target: HDAC11 (Homo sapiens (Human), UniProt Q96DB2); assay: Inhibition of purified HDAC11; conditions: read-out: HDAC 11 IC50; class IV
[2] = system: OCI-AML3 cells; assay: Survival/apoptosis of OCI-AML3 AML cells by Annexin V labeling; assay type: cell-based, human
[3] = system: p53 target genes in normal CD34^+ cells; assay: qRT-PCR of p53 target genes in normal CD34+ cells; assay type: cell-based, human; conditions: similar treatment
Description: (§1) FIGS. 5A-5G. […] FIG. 5A: Relative expression level of HDAC8 in normal (NL) PBSC (n=7) or inv(16)^+ AML (n=7) CD34^+ cells determined by qRT-PCR. Levels of HDAC8 expression were normalized to levels of ACTB in each sample. Dashed line indicates the average of all NL PBSC samples (set to an arbitrary value of 1). […] Each dot represents an individual subject and lines indicate mean±SEM. * P<0.05; ** P<0.01; *** P<0.001. […] Each dot represents an individual patient and lines indicate mean±SEM. * P<0.05; ** P<0.01; *** P<0.001. […] Levels of β-actin were detected as loading control. Shown are representative results from four patients. […] Each dot represents an individual subject and lines indicate mean±SEM. Dash line indicates levels in vehicle treated cells. * P<0.05; ** P<0.01; *** P<0.001. […] Each dot represents an individual patient and lines indicate mean±SEM.

[4] = system: KG1a cells; assay: Survival of KG1a AML cells by Annexin V labeling; assay type: cell-based, human; conditions: 48 h, result in words
[5] = system: p53 target genes in inv(16)^+ AML CD34^+ cells; assay: qRT-PCR of p53 target genes in inv(16)+ AML CD34+ cells; assay type: cell-based, human; conditions: 10 μM, 16 h
Description: as §1

[6] = system: dTomato^+/cKit^+ AML cells; assay: In vivo administration of 22d to mice transplanted with AML cells
Protocol: FIG. 7A-7I. […] FIG. 7A: Schematic illustration of experimental design. Cbfb^+/56MMx1Cre/tdTomato^+ mice were induced with pIpC and AML cells were isolated from bone marrow of moribund mice and transplanted into sub-lethally irradiated (6.5 Gy) C57Bl/6 congenic mice. […] AML engraftment was analyzed at the end of the treatment period, and transplanted into 2nd recipients. Recipients were analyzed for engraftment at 8 weeks or monitored for leukemia onset and survival. […] Mice were analyzed 8 weeks after transplantation. […] FIG. 7G.
AML cells (1×10^6 or 2×10^6) were directly transplanted into sub-lethally irradiated congenic recipients. […] To further assess the impact on LSC activity, we transplanted bone marrow cells (2×10^6) from these treated mice into secondary recipients and analyzed for AML engraftment.

[7] = system: CM-p53 protein complex; assay: Interaction of CM with p53 under HDAC8i treatment; assay type: cell-based
Description: Cells were lysed in RIPA buffer containing protease inhibitor cocktail (Roche) and MG132. Antibodies used for IP were conjugated with protein A/G beads using the antibody cross-linking kit (Pierce Biotechnology, Rockford, Ill.) following manufacturer's protocol. For Western blot, proteins were resolved in 10% SDS-PAGE. The antibodies used induced anti-FLAG (Sigma), anti-HDAC8, anti-CBFβ (Santa Cruz), anti-p53 (DO-1), anti-Ac-p53 (K379) (Cell Signaling), anti-p53 (Cell signaling) and anti-β-actin (Sigma). Horseradish peroxidase-conjugated anti-rabbit or anti-mouse secondary antibodies (Jackson ImmunoResearch, West Grove Pa.) were used, followed by detection using the SuperFemto kit (Pierce Biotechnology, Rockford, Ill.).
Class 1 HDACs, including HDAC1, HDAC2, and HDAC3, reportedly could inhibit p53 activity by deacetylating p53 [41-43]. […] To test this, we used lentivirus (pLKO. 1) mediated expression of 2 independent small-hairpin (sh)-RNA sequences against Hdac8 to specifically knock-down Hdac8 in 32D-CM cells. Cells were exposed to IR (3Gy) and analyzed for levels of p53 acetylation 6 h after.

[8] = system: H1299 cells; assay: Cytotoxicity / anti-proliferative activity in H1299 lung cancer cells
[9] = system: normal HSCs (CB CD34^+ cells); assay: Engraftment of normal CB CD34+ cells treated ex vivo into NSG mice; conditions: 10 μM 48 h ex vivo, 16 weeks
Description: FIGS. 18A-18F. […] Shown are engraftment levels of each population (CD45+, CD34+, CD33+, CD14+, CD15+) in the bone marrow and spleen weight at 16 weeks after transplantation. […] FIGS. 18A-18F (in order): CD45+, CD34+, CD33+, CD14+, CD15+, and spleen.
AML is maintained by LSCs that are relatively resistant to chemotherapy and can persist as potential sources of relapse. Even though AML with CBF translocations are considered to have favorable prognosis, the incidence of relapse is still 25-58% with chemotherapy.

[10] = system: A549 cells; assay: Cytotoxicity / anti-proliferative activity in A549 lung cancer cells; conditions: result in words
[11] = target: HDAC3 (Homo sapiens (Human), UniProt O15379); assay: Inhibition of purified HDAC3; conditions: read-out: HDAC 3 IC50; class I
[12] = target: HDAC1 (Homo sapiens (Human), UniProt Q13547); assay: Inhibition of purified HDAC1; assay type: biochemical; conditions: class I; read-out: HDAC 1 IC50
[13] = target: HDAC6 (Homo sapiens (Human), UniProt Q9UBN7); assay: Inhibition of purified HDAC6; conditions: read-out: HDAC 6 IC50; class II
[14] = system: Ac-p53 in non-inv(16) AML (p53 non-mutated) CD34^+ cells; assay: Western blot of Ac-p53 in non-inv(16) AML CD34+ cells; conditions: similar treatment
Description: We therefore tested whether inhibiting HDAC8 deacetylase activity in inv(16)^+ AML CD34^+ cells could similarly lead to increased p53 acetylation and transcriptional activity.

[15] = system: inv(16)^+ AML CD34^+ cells; assay: Proliferation of inv(16)+ AML CD34+ cells, ATP-based cell viability assay; set-up: species or system human; conditions: 48 h, 2.5 μM to 40 μM, compared to normal CD34+ cells
[16] = system: HeLa nuclear HDACs; assay: Inhibition of HeLa nuclear HDACs (HeLa nuclear extract, mainly HDACs1-3); assay type: biochemical; conditions: read-out: HeLa HDAC IC50

HDAC11, sequence (Q96DB2 whole entry, species assumed): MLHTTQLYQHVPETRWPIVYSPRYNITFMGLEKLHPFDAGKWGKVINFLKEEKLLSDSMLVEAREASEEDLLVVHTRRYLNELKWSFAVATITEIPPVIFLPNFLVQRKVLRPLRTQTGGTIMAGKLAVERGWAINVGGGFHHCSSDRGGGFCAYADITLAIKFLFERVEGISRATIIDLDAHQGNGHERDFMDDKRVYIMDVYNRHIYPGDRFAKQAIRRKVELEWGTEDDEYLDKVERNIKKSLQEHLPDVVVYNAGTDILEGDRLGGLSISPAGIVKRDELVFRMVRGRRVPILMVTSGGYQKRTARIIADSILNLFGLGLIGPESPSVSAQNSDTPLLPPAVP
HDAC6, sequence (Q9UBN7 whole entry, species assumed): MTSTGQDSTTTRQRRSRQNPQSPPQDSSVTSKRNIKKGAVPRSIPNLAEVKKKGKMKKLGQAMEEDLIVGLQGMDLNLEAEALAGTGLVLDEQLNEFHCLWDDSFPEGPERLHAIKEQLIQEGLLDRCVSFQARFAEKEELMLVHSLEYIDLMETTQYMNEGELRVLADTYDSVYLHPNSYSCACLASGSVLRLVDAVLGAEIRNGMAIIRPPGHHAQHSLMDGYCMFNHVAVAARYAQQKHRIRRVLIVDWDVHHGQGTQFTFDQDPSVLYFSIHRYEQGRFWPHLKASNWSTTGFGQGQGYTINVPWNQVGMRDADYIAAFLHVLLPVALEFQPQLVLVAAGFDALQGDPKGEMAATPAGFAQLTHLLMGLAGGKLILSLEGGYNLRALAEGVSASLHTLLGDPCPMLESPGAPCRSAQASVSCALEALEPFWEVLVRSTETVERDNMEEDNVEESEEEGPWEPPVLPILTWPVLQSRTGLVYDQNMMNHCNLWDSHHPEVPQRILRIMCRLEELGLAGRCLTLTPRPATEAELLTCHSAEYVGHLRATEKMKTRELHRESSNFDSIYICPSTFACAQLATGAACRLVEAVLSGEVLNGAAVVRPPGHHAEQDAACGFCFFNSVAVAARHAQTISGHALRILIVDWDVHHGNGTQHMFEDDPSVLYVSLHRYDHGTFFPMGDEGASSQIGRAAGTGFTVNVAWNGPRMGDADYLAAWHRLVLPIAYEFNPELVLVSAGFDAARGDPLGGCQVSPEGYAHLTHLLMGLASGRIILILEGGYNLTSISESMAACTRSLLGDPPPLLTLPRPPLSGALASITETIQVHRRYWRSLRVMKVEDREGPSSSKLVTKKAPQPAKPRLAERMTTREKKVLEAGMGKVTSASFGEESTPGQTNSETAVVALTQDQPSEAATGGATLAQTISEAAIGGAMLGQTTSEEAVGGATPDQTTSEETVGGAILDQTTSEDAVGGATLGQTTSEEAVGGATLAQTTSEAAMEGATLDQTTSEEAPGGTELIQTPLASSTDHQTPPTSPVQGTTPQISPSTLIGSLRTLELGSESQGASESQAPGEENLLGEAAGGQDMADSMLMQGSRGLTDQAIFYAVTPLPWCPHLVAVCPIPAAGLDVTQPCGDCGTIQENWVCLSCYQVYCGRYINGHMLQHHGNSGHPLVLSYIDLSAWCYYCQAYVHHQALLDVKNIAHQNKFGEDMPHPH
HDAC3, sequence (O15379 whole entry, looked up, species assumed): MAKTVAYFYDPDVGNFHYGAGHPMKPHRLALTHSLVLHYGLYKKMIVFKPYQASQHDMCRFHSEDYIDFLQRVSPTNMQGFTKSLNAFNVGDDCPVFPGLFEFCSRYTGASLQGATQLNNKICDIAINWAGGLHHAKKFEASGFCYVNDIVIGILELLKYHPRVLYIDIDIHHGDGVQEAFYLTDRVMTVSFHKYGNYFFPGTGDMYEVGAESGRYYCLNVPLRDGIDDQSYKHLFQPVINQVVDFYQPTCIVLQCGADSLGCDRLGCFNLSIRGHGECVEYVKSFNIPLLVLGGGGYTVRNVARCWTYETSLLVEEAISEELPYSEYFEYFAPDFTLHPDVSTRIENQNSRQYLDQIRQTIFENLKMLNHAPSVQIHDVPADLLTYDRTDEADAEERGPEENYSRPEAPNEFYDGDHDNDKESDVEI
HDAC3, sequence (Q9Y618 whole entry partner, looked up, species assumed): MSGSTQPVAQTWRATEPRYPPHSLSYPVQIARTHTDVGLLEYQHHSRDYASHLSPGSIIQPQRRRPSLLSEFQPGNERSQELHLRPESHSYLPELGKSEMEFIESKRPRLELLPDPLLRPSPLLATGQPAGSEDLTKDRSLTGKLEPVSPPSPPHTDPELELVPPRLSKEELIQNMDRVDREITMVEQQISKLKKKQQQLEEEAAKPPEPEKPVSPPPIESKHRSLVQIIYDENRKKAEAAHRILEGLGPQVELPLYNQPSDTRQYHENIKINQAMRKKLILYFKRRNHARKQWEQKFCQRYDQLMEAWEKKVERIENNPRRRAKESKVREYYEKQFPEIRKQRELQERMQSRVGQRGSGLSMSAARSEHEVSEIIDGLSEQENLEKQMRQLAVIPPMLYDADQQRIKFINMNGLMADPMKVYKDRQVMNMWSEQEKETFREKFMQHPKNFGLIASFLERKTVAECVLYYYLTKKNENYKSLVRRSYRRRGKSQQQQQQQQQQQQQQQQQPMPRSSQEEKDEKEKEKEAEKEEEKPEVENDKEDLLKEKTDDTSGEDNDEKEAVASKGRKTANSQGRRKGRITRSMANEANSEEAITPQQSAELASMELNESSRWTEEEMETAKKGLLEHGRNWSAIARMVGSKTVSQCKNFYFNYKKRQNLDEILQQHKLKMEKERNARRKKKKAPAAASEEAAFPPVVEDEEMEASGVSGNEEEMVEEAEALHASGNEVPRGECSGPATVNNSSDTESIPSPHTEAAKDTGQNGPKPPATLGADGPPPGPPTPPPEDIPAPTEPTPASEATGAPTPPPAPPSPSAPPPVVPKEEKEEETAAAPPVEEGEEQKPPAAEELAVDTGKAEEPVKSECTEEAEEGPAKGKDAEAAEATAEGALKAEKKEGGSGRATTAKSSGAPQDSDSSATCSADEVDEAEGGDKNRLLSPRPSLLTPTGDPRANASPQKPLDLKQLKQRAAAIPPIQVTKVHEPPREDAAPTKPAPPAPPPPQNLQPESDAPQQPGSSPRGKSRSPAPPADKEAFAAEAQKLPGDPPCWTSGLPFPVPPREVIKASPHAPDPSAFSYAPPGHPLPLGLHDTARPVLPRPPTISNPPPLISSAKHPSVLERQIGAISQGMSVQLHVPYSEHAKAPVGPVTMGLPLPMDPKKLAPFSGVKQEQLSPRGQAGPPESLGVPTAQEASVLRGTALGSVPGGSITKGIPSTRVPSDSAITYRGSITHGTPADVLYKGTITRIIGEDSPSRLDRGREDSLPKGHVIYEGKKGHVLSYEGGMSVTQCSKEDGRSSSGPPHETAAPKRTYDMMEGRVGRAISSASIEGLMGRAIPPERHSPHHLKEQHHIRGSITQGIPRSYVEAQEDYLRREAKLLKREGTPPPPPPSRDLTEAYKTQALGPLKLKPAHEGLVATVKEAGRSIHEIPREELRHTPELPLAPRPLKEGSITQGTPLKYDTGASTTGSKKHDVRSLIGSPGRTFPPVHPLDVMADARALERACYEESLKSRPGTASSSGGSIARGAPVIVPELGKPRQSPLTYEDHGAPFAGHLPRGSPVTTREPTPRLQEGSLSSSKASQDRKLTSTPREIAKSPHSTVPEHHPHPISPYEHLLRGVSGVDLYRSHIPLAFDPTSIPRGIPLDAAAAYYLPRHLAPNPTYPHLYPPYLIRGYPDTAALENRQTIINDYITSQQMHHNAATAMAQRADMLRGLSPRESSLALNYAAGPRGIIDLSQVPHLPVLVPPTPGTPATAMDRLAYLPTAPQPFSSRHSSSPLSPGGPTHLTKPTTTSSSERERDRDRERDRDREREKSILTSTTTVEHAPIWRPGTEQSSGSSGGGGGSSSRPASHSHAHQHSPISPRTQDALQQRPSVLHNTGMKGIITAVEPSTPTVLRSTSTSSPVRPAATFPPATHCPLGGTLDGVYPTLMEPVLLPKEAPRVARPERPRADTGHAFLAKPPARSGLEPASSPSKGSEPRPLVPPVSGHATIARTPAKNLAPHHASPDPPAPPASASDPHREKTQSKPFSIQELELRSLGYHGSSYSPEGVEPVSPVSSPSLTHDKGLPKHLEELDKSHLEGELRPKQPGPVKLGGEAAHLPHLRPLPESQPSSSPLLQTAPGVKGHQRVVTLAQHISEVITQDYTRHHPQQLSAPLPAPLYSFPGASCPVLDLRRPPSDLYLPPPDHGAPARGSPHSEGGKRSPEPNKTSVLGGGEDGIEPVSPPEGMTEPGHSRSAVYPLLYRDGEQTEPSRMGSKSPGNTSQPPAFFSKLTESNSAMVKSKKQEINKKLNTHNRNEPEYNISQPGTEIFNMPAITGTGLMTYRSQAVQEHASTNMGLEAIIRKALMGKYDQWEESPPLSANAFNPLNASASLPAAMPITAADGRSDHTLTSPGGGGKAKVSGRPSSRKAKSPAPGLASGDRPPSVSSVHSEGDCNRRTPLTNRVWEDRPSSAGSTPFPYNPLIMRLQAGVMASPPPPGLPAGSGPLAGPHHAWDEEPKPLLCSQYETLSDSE
HDAC1, sequence (Q13547 whole entry, species assumed): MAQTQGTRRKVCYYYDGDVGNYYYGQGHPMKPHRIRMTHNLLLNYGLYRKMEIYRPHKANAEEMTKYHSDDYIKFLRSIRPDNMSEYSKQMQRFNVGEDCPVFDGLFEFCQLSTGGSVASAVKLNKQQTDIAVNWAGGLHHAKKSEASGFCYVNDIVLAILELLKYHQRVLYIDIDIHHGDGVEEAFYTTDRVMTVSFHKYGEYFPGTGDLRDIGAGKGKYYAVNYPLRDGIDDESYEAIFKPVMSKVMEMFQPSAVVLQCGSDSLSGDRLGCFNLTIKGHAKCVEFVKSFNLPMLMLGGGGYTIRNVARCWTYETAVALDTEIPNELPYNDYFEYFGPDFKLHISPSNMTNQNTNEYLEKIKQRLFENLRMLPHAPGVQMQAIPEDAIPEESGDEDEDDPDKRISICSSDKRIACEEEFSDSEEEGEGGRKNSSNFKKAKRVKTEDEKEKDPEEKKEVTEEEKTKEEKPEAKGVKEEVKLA

COc1ccc(/C=C/C(=O)NO)c(-c2ccc(-c3ccccc3)cc2)c1 [Compound 22d, (E)-N-Hydroxy-4-methoxy-2-(biphenyl-4-yl)cinnamide]
IC50 [1]: > 20 nM | IC50 ([2]; 48-hr, Annexin V labeling, read-out: OCI-AML3 Apoptosis IC50): 8120 nM | survival of OCI-AML3 cells ([2]; 48 h, result in words): decreases with increased HDAC8i concentration | p53 target expression in normal CD34+ cells [3]: no or little change in p53 target expression | survival of KG1a cells [4]: decreases with increased HDAC8i concentration | expression of p53 target genes in inv(16)+ AML CD34+ cells [5]: significantly induced expression of p53 target genes | leukemia onset in secondary recipients ([6]; 5-7 weeks after transplant of 5×10^6 BM cells): no signs of leukemia | frequency and number of AML cells in bone marrow of secondary recipients ([6]; 8 weeks after transplantation of BM from treated mice): Significant reduction in the frequency (p<0.0001) and the number (p=0.0006) | frequency and number of dTomato+/cKit+ AML cells in the bone marrow ([6]; intraperitoneal 50 mg/kg/dose twice a day for 2 weeks, vs vehicle): significantly reduced the frequency (p=0.0097) and the number (p=0.0101) | interaction of CM with p53 [7]: did not disrupt the interaction of CM with p53 | IC50 ([8]; read-out: Cytotoxicity IC50 H1299, mean SD of three determinations): 7.2 ± 0.7 nM | anti-proliferative effects in H1299 cells ([8]; result in words): moderate anti-proliferative effects | engraftment activity of normal HSCs [9]: does not affect normal HSC engraftment; also recorded: no impact on short-term or long-term engraftment activity | anti-proliferative effects in A549 cells [10]: moderate anti-proliferative effects | IC50 [11]: 3 ± 0.1 nM | IC50 [12]: 3 ± 0.2 nM | IC50 [13]: > 20 nM | Ac-p53 level in non-inv(16) AML CD34+ cells [14]: did not affect Ac-p53 | proliferation of inv(16)+ CD34+ cells [15]: significantly reduced proliferation | IC50 [16]: > 10000 nM
